Test results: US11554084B2, “Compositions incorporating avobenzone-calix[8]-PO3H2 complex” (University of Cincinnati, priority 2020, dated 2023)

Experiments:
[1] = Neutron reflectometry (NR) of tethered POPC / POPC-d31 lipid bilayer membranes incubated with the substance and after rinse; format: physicochemical; settings: for Peak of avobenzone CVO from bilayer center / Surface volume density: co-refined POPC-d31 and POPC
Description: The interaction of avobenzone and calix[8]-PO3H2 was tested with single-membrane POPC (1-palmitoyl-2-oleoyl-sn-glycero-3-phosphocholine) tethered lipid bilayer membranes (tBLMs). Solvent-immersed tBLMs allowed for a characterization of the membrane before and after addition of avobenzone and calix[8]-PO3H2 from solution, thus mimicking the encounter of those substances by the membrane in the body. This differentiates tBLMs from conventionally used stacked lipid bilayer model systems in air. The chemical structure of the glycerophospholipid POPC consists of a zwitterionic phosphatidylcholine headgroup linked to a glycerol, which is ester-bound to two fatty acid groups—palmitic acid (C16:0) and oleic acid (C18:1). This fatty acid composition mimics that of phospholipids mainly found in the eukaryotic cell membrane, including keratinocytes. In addition to phospholipids, native eukaryotic membranes also contain glycolipids, sterols and various proteins, which are not included in the current simplified model system.
Neutron Reflectometry (NR) experiments were conducted with hydrogenated and deuterated POPC bilayers. Both data sets were simultaneously analyzed to obtain one structural model. NR measurements were performed with the CGD-Magik reflectometer at the NIST Center for Neutron Research (NCNR). Reflectivity curves were recorded for momentum transfer values 0.01≤qz≤0.25 Å^−1. For each measurement, adequate counting statistics were obtained after 5-7 h. The NCNR fluids cell allows for in situ solvent exchange; therefore, subsequent measurements were performed on the same sample area. The entire flow cell was maintained at room temperature (RT). Solvent exchange was accomplished by rinsing ˜10 ml of water through the cell (volume ˜1.3 ml) using a syringe.
A set of NR experiments was conducted with a hydrogenated POPC bilayer and another identical set of experiments with a deuterated POPC-d31 bilayer. After measurement of the as-prepared bilayer in H2O and D2O, avobenzone was added to the sample cell at a concentration of 100 μM dissolved in H2O and D2O. NR measurements were conducted while the bilayer was in contact with either solution. The sample was measured again after rinsing with H2O and D2O, respectively. Data for both bilayers were co-refined sharing conserved model parameters across data sets, in particular those associated with the volume profile of avobenzone. […] An identical set of measurements were performed with a 100 μM complex of 1:1 avobenzone:calix[8]-PO3H2 instead of pure avobenzone.
1D-component volume occupancy (CVO) profiles along the lipid bilayer normal were obtained. Bilayer fit parameters were the hydrocarbon thickness for each bilayer subsection, the bilayer completeness, and the thickness of the sub-membrane space. One roughness parameter was applied to all distributions. The thin layer of native silicon oxide was modelled by a single distribution with individual roughness and thickness parameters. Hermite splines defined by control points that were on average 15 Å apart were used to model the CVO profiles of avobenzone and calix[8]-PO3H2. The number of control points was iteratively refined during model optimization for each CVO profile. Fit parameters associated with each control point were a volume occupancy, a deviation from equidistant separation, and (for the CVO profile of the complex) a nSLD (neutron scattering length density) value between those of avobenzone and calix[8]-PO3H2. Such a variable nSLD per control point allowed us to separate individual CVO profiles for avobenzone (average nSLD ρ=1.37×10^−6 Å^−2) and calix[8]-PO3H2 (ρ=2.73×10^−6 […]). The exchange of labile protons in isotopically different buffers affects the nSLD of molecular components and was taken into account during data analysis. Optimization of model parameters was performed using the ga_refl and Refl1D software packages developed at the NCNR. […]

[2] = once exposed to sun; cited from earlier work
[3] = test system: rat cell lines; settings: cited from earlier work
[4] = test system: human cell lines; settings: cited from earlier work
[5] = avobenzone alone, 100 μM incubation

For `COc1ccc(C(=O)CC(=O)c2ccc(C(C)(C)C)cc2)cc1` [avobenzone, 1-(4-methoxyphenyl)-3-(4-tertbutylphenyl)-propane-1,3-dione], the “Peak of avobenzone CVO from bilayer center” value [1, 5] was 10±3 Å, the Surface volume density [1, 5] was 3.0±0.5 Å^3/Å^2 and the “1 avobenzone per n lipids in outer leaflet” value ([1]; avobenzone alone, Rinse) was ~1 avobenzone per 2.1 lipids in outer leaflet. The “Peak of avobenzone CVO from bilayer center” value ([1]; avobenzone alone, Rinse) was 7±3 Å, the Surface volume density ([1]; avobenzone alone, Rinse) was 3.8±0.4 Å^3/Å^2 and the “Penetration of the lipid bilayer (in words)” value ([1]; interacts at hydrocarbon/headgroup interface of the substrate-distal leaflet) was “without penetrating the bilayer to the substrate-proximal leaflet”. For the same compound, the Duration of photoprotection [2] was 30 min.
In the case of `O=P(O)(O)c1cc2c(O)c(c1)Cc1cc(P(=O)(O)O)cc(c1O)Cc1cc(P(=O)(O)O)cc(c1O)Cc1cc(P(=O)(O)O)cc(c1O)Cc1cc(P(=O)(O)O)cc(c1O)Cc1cc(P(=O)(O)O)cc(c1O)Cc1cc(P(=O)(O)O)cc(c1O)Cc1cc(P(=O)(O)O)cc(c1O)C2` [calix[8]-PO3H2, p-phosphonated calix[8]arene], the “Toxicity towards rat cell lines” value [3] is given as “non-toxic” and the “Toxicity towards human cell lines” value [4] is given as “non-toxic”.
